The values below come from patent publication US20100016338A1, “5-[(3,3,3-Trifluoro-2-hydroxy-1-arylpropyl)amino]-1-arylquinolin-2-ones, a Process for their Production and their Use as Anti-inflammatory Agents” (BAYER SCHERING PHARMA AKTIENGESELLSCHAFT, priority 2008, published 2010).

The subject of assay [1] is cytokine IL-8 secretion, human monocyte cell line THP-1. The assay is described as follows: inhibition of LPS-triggered IL-8 secretion in THP-1 cells (ELISA). It is filed as cell-based. The following applies: in comparison with dexamethasone as reference. As for the experimental part:
The concentration of the cytokines was determined in the supernatant by means of commercially available ELISA kits.

Assay [2] deals with T1, glucocorticoid receptor (GR) (Homo sapiens, UniProt P04150).
T1 construct: made in house; host or cells: Sf9 insect cells infected with recombinant baculovirus; cytosol preparation
T1 sequence (P04150 1-777): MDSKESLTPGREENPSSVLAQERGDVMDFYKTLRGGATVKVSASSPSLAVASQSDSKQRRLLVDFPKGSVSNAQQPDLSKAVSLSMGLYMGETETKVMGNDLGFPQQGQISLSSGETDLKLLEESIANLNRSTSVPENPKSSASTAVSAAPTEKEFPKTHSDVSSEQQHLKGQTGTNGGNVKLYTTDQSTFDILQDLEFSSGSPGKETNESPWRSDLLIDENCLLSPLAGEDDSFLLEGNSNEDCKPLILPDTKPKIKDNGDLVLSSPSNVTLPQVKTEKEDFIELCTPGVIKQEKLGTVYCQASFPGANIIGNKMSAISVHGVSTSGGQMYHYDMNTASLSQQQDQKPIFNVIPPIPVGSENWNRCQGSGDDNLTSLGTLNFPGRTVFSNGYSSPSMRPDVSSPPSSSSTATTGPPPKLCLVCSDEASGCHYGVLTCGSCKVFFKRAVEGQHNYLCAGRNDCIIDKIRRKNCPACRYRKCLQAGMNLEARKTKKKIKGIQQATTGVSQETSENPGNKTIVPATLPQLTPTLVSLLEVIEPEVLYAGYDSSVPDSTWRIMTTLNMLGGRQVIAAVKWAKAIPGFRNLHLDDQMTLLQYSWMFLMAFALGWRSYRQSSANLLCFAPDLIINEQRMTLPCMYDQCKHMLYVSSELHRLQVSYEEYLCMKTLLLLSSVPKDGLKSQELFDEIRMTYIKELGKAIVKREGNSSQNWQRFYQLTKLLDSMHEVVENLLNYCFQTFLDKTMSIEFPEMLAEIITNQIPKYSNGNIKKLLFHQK
The assay is described as follows: binding to the glucocorticoid receptor (recombinant receptor, cytosol of baculovirus-infected Sf9 cells). The source says:
The binding of the substances to the glucocorticoid receptor (GR) and other steroid hormone receptors (mineral corticoid receptor (MR), progesterone receptor (PR) and androgen receptor (AR)) is examined with the aid of recombinantly produced receptors. Cytosol preparations of Sf9 cells, which had been infected with recombinant baculoviruses, which code for the GR, are used for the binding studies.

Broadly, the IC50 is the point on the concentration scale where inhibition reaches its midpoint. Regarding `COCC(O)(C(Nc1cc(F)cc2c1ccc(=O)n2-c1ccc(F)nc1)c1ccc(OC)c(F)c1Cl)C(F)(F)F` (centres unmarked) [Example 2, 5-{[1-(2-Chloro-3-fluoro-4-methoxyphenyl)-3,3,3-trifluoro-2-hydroxy-2-(methoxymethyl)propyl]amino}-7-fluoro-1-(6-fluoropyridin-3-yl)-1H quinolin-2-one], the “efficacy of IL-8 inhibition” value in assay [1] was found to be 107%. In addition, the IC50 in assay [2] came out at 6.3 nM.
